# “Also recorded” adds a separate entry of the source.
# Columns and labels:
# [1] = test system: AKAP-Lbc-mediated activation of RhoA in HEK293 cells; test: SRE luciferase reporter assay, AKAP-Lbc expressed; assay type: cell-based, human; conditions: Scaff10
# Description: Luciferase reporter gene assays were performed with the Dual Luciferase Reporter Assay System (Promega) according to manufactures protocol and as previously reported. In brief, HEK293 cells were seeded and co-transfected with the indicated plasmids together with pSRE.L reporter plasmid encoding firefly luciferase (kindly provided from Dr J. Mao and Dr. D. Wu, Rochester, NY) and pRL-TK control vector (Promega, Mannheim, Germany) encoding renilla luciferase. The transfected cells were further cultured in DMEM with 0.5% FCS for 24 h, lysed with passive lysis buffer (Promega). Luciferase activities was measured an Envision Instrument (Perkin Elmer, Rodgau, Germany) in white 96-well plates. […] In Western blots, the protein was detected with primary polyclonal antibody (rabbit; Gramsch, 1:1000). […] AKAP-Lbc was detected with a specific anti-AKAP-Lbc antibody (Abcam; #ab99377; 1:1000). […]
# Fig 7 Scaff10-8 inhibits the AKAP-Lbc-mediated activation of RhoA in cells. […] Statistically significant differences were determined applying one-way ANOVA with posthoc Bonferroni. […]
# in luciferase activity induced by other GEFs. n=3; statistically significant differences were not found, as confirmed by statistical analysis using ANOVA. […] The fraction of active RhoA was determined using Rhotekin pulldown assays as described. […]
# His6-GST fusion protein = His6-GST fusion protein (Schistosoma japonicum, UniProt P08515); test: HTRF control assay with His6-GST fusion protein; assay type: binding; conditions: control for interference with tags or antibodies
# Description: The assay was essentially carried out as described. Scaff10 derivatives were added to His6-AKAP-Lbc/DHPH protein (250 nM final concentration) in HTRF buffer (PBS; 4 mM MgCl2; 0.05% Tween 20) in 384 well plates (Proxiplate-384 Plus, white, #6008289; Perkin Elmer LAS, Rodgau, Germany). Concentrations of Scaff10 derivatives ranged between 1.56–200 μM (2% DMSO final concentration); HTRF buffer with 2% DMSO served as a control. GST-RhoA (30 nM final concentration) in HTRF buffer and anti-GST antibody coupled to terbium (donor) and anti-His6-tag antibody coupled to XL665 (acceptor) were added to all wells (final antibody concentration: 2 μg/ml). After 1 h incubation at room temperature in the dark, FRET signals were recorded at 620 and 665 nm using a Genios Pro plate reader (Tecan Austria GmbH, Grödig, AT) and the ratios of […] to 620 nm were calculated. Wells containing no compound were set to 100% interaction of AKAP-Lbc/DHPH with RhoA, wells containing GST-RhoA only (without His6-AKAP-Lbc/DHPH) were set to 0% interaction. To exclude any interference of the tags and/or antibodies with Scaff10 derivatives, a His6-GST fusion protein replaced the two tagged proteins in a control assay. Wells containing His6-GST fusion protein were set to 100% interaction of His6-GST, wells containing no fusion protein were set to 0% interaction.
# Sequence of His6-GST fusion protein (P08515 whole entry, the tested form may be a part): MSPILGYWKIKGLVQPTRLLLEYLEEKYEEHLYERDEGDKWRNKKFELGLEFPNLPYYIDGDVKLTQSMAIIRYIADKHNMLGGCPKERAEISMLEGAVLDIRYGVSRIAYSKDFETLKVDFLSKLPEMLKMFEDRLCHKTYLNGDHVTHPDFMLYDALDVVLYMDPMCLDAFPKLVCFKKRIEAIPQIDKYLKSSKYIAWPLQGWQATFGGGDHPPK
Compound,AKAP-Lbc-mediated activation of RhoA (SRE luciferase activity) [1],interaction with His-GST fusion protein (His6-GST fusion protein)
"COc1ccc(-c2coc3cc4oc(=O)c(C)c(C)c4cc23)cc1 [Scaff10, 3-(4-Methoxyphenyl)-5,6-dimethyl-furo[3,2-g]chromen-7-one]",selectively inhibited; also recorded: concentration-dependently inhibits,
"COc1ccc(-c2coc3cc4oc(=O)c(CCC(=O)O)c(C)c4cc23)cc1 [Scaff10-8, 3-[3-(4-Methoxyphenyl)-5-methyl-7-oxo-furo[3,2-g]chromen-6-yl] propanoic acid]",,does not interact

# Reference: article PMC5786306, “An AKAP-Lbc-RhoA interaction inhibitor promotes the translocation of aquaporin-2 to the plasma membrane of renal collecting duct principal cells” (PLoS ONE, 2018)
